According to patent US20200017495A1, “NOVEL HETEROCYCLIC COMPOUNDS AND THEIR USE IN PREVENTING OR TREATING BACTERIAL INFECTIONS” (priority 2017, published 2020):
“And” between values parts separate entries of the source, which are not always exact repeats. Identical values can stand only once. Like-named read-outs stand apart in the source and are kept apart here.

Legend:
Assay type in all cases: cell-based
[1] = tested on: Proteus mirabilis (PMI) isolates; assay: microbe, parasite or virus in culture
In short: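 Broth microdilution in cation-adjusted Mueller-Hinton broth, inoculum 5.10^5 CFU/mL, 16-20 h at 35° C in ambient air, on genotyped isolates. Compound MIC, alone or with an antibacterial, taken visually as lowest concentration preventing growth; antibacterial MIC determined at each compound concentration.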

[2] = tested on: Providencia stuartii (PST) isolates; assay: MIC of compounds alone and combined with antibacterials, broth microdilution (CLSI)
In short: (§1)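 Genotyped isolates; cpd ± antibacterial, DMSO spots; ca-MHB, 5.10^5 CFU/mL; 35° C, 16-20 h, air; visual MIC; ATB MIC per cpd concentration.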

[3] = tested on: Salmonella typhimurium (STY) isolates; assay: as above; settings: STY S3371; AF2 @ 8 μg/mL
In short: as §1

[4] = tested on: Enterobacter aerogenes (EAE) isolates; assay: as above
Experimental: (§2) Method 2: MIC of Compounds Alone and Combined with Antibacterials Against Bacterial Isolates
(§3) Compounds of the present invention were assessed against genotyped bacterial strains (Table 3, 4) alone or in combination with an antibacterial (Table 2). […] Log phase bacterial suspensions were adjusted to a final density of 5.10^5 CFU/mL in cation-adjusted Mueller-Hinton broth (ca-MHB; Becton-Dickinson and Company) and added to each well (98 μL). Microplates were incubated for 16-20 h at 35° C. in ambient air. The MIC of the compounds was defined as the lowest concentration of said compounds that prevented bacterial growth as read by visual inspection. The MIC of ATB at each compound concentration was defined as the lowest concentration of ATB that prevented bacterial growth as read by visual inspection.

[5] = tested on: Klebsiella oxytoca (KOX) isolates; assay: as above
Experimental: as §2, §3

[6] = tested on: Morganella morganii (MMO) isolates; assay: as above
Experimental: as §2, §3

[7] = tested on: Citrobacter freundii (CFR) isolates; assay: as above
Experimental: as §2, §3

CC1(C)S[C@@H]2[C@H](NC(=O)[C@H](N)c3ccc(O)cc3)C(=O)N2[C@H]1C(=O)O [AMX, Amoxicillin]
>128 µg/mL: MIC ([1]; strain PMI UFR120, genotype TEM-1, SHV-11, CTX-M-14) | MIC ([1]; strain PMI UFR121, genotype TEM-1, TEM-52) | MIC ([1]; strain PMI UFR122, genotype TEM-1, CTX-M-15) | MIC ([1]; strain PMI UFR123, genotype CTX-M-1) | MIC ([1]; strain PMI UFR124, genotype CTX-M-2) | MIC ([1]; strain PMI UFR125, genotype CTX-M-71) | MIC ([1]; strain PMI UFR126, genotype TEM-2, PER-1) | MIC ([1]; strain PMI UFR127, genotype VEB-1) | MIC ([1]; strain PMI UFR128, genotype VEB-1, OXA-10) | MIC ([1]; strain PMI UFR129, genotype TEM-1, VEB-6) | MIC ([1]; strain PMI UFR130, genotype CMY-2) | MIC ([1]; strain PMI UFR131, genotype CMY-16, OXA-1, OXA-10, NDM-1, ArmA) | MIC ([1]; strain PMI UFR132, genotype VEB-6, DHA-1, NDM-1, AphA6, AacA4) | MIC ([1]; strain PMI UFR133, genotype OXA-23) | MIC ([1]; strain PMI UFR237, genotype VEB-6) | MIC ([2]; strain PST UFR94, genotype CTX-M-14) | MIC ([2]; strain PST UFR95, genotype TEM-24) | MIC ([2]; strain PST UFR98, genotype TEM-1, CMY-6, OXA-1, NDM-1, RmtC) | MIC ([2]; strain PST UFR235, genotype VEB-1) | MIC ATB in combination ([4]; EAE 49469, CLA @ 4 μg/mL) | MIC ATB in combination ([4]; EAE 200261, CLA @ 4 μg/mL) | MIC ATB in combination ([4]; EAE UFR199, CLA @ 4 μg/mL) | MIC ATB in combination ([4]; EAE UFR202, CLA @ 4 μg/mL) | MIC ATB in combination ([4]; EAE UFR213, CLA @ 4 μg/mL) | MIC ([4]; strain EAE UFR199, genotype TEM-1b, SHV-12, KPC-2, OXA-9) | MIC ([4]; strain EAE UFR201, genotype TEM-1, SHV-12, CTX-M-15) | MIC ([4]; strain EAE UFR202, genotype TEM-24) | MIC ([4]; strain EAE UFR213, genotype TEM-24) | MIC [5] | MIC ATB in combination [5] | MIC ([5]; strain KOX UFR223, genotype SHV-11, OXA-48) | MIC ([5]; strain KOX UFR224, genotype CTX-M-15, OXA-48) | MIC [6] | MIC ATB in combination [6] | MIC ([6]; strain MMO UFR144, genotype TEM-1, CTX-M-15) | MIC ([6]; strain MMO UFR240, genotype CTX-M-9) | MIC ([6]; strain MMO UFR241, genotype TEM-1, CTX-M-15) | MIC ([6]; strain MMO UFR242, genotype TEM-52) | MIC ATB in combination ([7]; CFR UFR10, CLA @ 4 μg/mL) | MIC ATB in combination ([7]; CFR UFR11, AF2 @ 8 μg/mL) | MIC ATB in combination ([7]; CFR UFR11, CLA @ 4 μg/mL) | MIC ATB in combination ([7]; CFR UFR37, CLA @ 4 μg/mL) | MIC ATB in combination ([7]; CFR UFR83, AF2 @ 8 μg/mL) | MIC ATB in combination ([7]; CFR UFR83, CLA @ 4 μg/mL) | MIC ATB in combination ([7]; CFR UFR146, CLA @ 4 μg/mL) | MIC ATB in combination ([7]; CFR UFR248, CLA @ 4 μg/mL) | MIC ATB in combination ([7]; CFR UFR249, CLA @ 4 μg/mL) | MIC ([7]; strain CFR UFR146, genotype TEM-1, KPC-2) | MIC ([7]; strain CFR UFR147, genotype TEM-1, CTX-M-15, OXA-1, OXA-181, OXA-10, OXA-9, NDM-1, ArmA, dfrA12, aadA2, antibiotic alone) | MIC ATB in combination ([7]; strain CFR UFR147, with CLA @ 4 μg/mL) | MIC ([7]; strain CFR UFR148, genotype TEM-1, TEM-2, CTX-M-15, NDM-1, antibiotic alone) | MIC ATB in combination ([7]; strain CFR UFR148, with CLA @ 4 μg/mL) | MIC ([7]; strain CFR UFR248, genotype CTX-M-15) | MIC ([7]; strain CFR UFR249, genotype TEM-1, CTX-M-15) | MIC ([7]; strain CFR UFR250, genotype TEM-1, SHV-28, CTX-M-15) | MIC ([7]; strain CFR UFR251, genotype SHV-11, VIM-1, antibiotic alone) | MIC ATB in combination ([7]; strain CFR UFR251, with CLA @ 4 μg/mL) | MIC ([7]; strain CFR UFR252, genotype VIM-2, antibiotic alone) | MIC ATB in combination ([7]; strain CFR UFR252, with CLA @ 4 μg/mL) | MIC ([7]; strain CFR UFR253, genotype TEM-1, SHV-12, OXA-48) | MIC ATB in combination ([7]; strain CFR UFR253, with CLA @ 4 μg/mL) | MIC ([7]; strain CFR UFR254, genotype VEB-1b, OXA-48, qnrA) | MIC ATB in combination ([7]; strain CFR UFR254, with CLA @ 4 μg/mL)
1 µg/mL: MIC ATB in combination ([7]; CFR UFR10, AF2 @ 8 μg/mL)
<0.25 µg/mL: MIC ATB in combination ([1]; PMI UFR82, AF2 @ 8 μg/mL) | MIC ATB in combination [3] | MIC ATB in combination ([7]; CFR UFR37, AF2 @ 8 μg/mL)
<=0.25 μg/mL: MIC ATB in combination ([4]; EAE 49469, AF2 @ 8 μg/mL)
128 µg/mL and >128 µg/mL: MIC ATB in combination [2]
8 µg/mL: MIC ATB in combination ([2]; PST UFR120, CLA @ 4 μg/mL) | MIC ATB in combination ([2]; PST UFR122, CLA @ 4 μg/mL)
>256 µg/mL: MIC ([4]; strain EAE 200261, genotype TEM-x, AmpC) | MIC ([5]; strain KOX UFR21, genotype TEM-1, CTX-M-15, OXA-48) | MIC ([6]; strain MMO 200321, genotype TEM-1, CTX-M-15, OXA-1) | MIC ([7]; strain CFR UFR10, genotype OXA-48) | MIC ([7]; strain CFR UFR11, genotype TEM-1, OXA-1, OXA-48) | MIC ([7]; strain CFR UFR37, genotype TEM-1, CTX-M-15, NDM-1) | MIC ([7]; strain CFR UFR83, genotype TEM-3, AmpC)
2 µg/mL: MIC ATB in combination ([1]; PMI UFR129, CLA @ 4 μg/mL)
256 µg/mL: MIC ([1]; strain PMI UFR82, genotype CMY-2)
128 µg/mL: MIC ATB in combination ([7]; CFR UFR250, CLA @ 4 μg/mL)
32 µg/mL: MIC ATB in combination ([1]; PMI UFR127, CLA @ 4 μg/mL) | MIC ATB in combination ([4]; EAE UFR207, CLA @ 4 μg/mL)
4 µg/mL: MIC ATB in combination ([1]; PMI UFR237, CLA @ 4 μg/mL) | MIC ATB in combination ([2]; PST UFR121, CLA @ 4 μg/mL) | MIC ATB in combination ([2]; PST UFR125, CLA @ 4 μg/mL)
16 µg/mL: MIC ATB in combination ([1]; PMI UFR126, CLA @ 4 μg/mL) | MIC ATB in combination ([2]; PST UFR123, CLA @ 4 μg/mL) | MIC ATB in combination ([4]; EAE 200261, AF2 @ 8 μg/mL) | MIC ATB in combination ([4]; EAE UFR201, CLA @ 4 μg/mL)
>1024 µg/mL: MIC ([4]; strain EAE 49469, genotype AmpC)
